Where two headings read alike, the source gives them in different places. One block for each compound: values may come before it.
Assays:
JNK2 = JNK2 (Homo sapiens, UniProt P45984); settings: IC50, Ki or Kd from the literature; cited from earlier work
EGFR = EGFR (Homo sapiens, UniProt P00533); settings: IC50, Ki or Kd from the literature; cited from earlier work
ERBB2 = ERBB2 (Homo sapiens, UniProt P04626); settings: IC50, Ki or Kd from the literature; cited from earlier work
p38α [1] = molecular target: T1, p38α (Homo sapiens, UniProt Q16539); settings: IC50, Ki or Kd from the literature; cited from earlier work
p38α [2] = molecular target: T1, p38α; experiment: Competition binding assay, phage-displayed kinase vs immobilized ATP-site ligand (SB202190); set-up: the coding region for p38α was cloned into the phage genome in-frame with the gene encoding the major T7 capsid protein; made in house; host or cells: T7 phage grown in E. coli (BLT 5615 in the illustrative protocol); lysate used directly

T1 sequence (Q16539 whole entry): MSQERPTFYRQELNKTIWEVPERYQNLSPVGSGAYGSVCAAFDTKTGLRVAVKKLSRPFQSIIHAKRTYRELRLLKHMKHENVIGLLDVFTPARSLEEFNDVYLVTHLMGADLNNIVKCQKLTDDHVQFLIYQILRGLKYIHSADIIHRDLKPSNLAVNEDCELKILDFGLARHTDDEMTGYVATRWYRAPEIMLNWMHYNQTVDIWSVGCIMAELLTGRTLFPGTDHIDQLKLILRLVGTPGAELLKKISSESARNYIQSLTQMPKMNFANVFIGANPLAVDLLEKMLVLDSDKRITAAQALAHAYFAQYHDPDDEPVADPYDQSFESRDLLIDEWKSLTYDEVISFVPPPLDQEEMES
Sequence of JNK2 (P45984 whole entry, species assumed): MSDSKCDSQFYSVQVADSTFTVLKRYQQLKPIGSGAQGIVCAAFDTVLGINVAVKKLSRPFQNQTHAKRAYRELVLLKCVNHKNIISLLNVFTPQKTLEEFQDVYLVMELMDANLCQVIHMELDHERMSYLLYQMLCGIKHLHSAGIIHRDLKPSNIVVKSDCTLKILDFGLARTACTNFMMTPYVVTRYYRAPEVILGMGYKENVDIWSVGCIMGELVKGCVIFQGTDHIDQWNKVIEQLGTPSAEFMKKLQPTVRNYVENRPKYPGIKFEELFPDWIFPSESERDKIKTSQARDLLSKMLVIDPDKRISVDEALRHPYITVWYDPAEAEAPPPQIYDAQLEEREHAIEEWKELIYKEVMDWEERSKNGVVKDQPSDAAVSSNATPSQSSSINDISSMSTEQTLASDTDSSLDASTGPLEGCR
Sequence of ERBB2 (P04626 23-1255, species assumed): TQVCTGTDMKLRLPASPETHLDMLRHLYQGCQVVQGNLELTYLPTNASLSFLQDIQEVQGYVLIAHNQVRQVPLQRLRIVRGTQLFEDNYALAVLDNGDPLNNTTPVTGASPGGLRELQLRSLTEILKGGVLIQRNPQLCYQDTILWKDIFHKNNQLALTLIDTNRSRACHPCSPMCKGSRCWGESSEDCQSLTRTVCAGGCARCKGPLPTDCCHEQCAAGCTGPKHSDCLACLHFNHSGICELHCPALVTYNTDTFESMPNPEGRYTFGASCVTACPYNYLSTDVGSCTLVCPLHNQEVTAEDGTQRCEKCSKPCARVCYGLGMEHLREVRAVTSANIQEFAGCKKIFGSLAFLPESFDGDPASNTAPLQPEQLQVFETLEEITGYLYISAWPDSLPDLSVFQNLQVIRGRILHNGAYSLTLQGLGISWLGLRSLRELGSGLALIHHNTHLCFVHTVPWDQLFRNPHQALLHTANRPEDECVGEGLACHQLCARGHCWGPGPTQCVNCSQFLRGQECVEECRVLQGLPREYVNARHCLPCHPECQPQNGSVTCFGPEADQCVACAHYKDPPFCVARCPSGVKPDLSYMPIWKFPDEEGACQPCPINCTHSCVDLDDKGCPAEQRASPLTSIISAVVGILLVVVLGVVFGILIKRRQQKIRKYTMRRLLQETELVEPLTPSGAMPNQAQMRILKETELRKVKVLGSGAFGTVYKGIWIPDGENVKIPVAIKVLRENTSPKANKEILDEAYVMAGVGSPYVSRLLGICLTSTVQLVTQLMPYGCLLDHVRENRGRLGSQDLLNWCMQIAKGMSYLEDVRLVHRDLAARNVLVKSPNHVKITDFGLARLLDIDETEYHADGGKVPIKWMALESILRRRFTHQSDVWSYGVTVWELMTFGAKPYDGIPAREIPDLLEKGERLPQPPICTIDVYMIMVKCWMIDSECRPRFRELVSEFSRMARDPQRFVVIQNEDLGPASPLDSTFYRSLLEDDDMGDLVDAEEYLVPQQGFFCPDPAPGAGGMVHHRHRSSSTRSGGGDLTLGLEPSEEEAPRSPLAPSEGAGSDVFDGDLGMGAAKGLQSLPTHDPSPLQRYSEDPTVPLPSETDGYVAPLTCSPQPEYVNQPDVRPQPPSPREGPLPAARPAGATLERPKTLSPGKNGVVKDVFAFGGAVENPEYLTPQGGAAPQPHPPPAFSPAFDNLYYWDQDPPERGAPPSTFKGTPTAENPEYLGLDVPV
Sequence of EGFR (P00533 25-1210, species assumed): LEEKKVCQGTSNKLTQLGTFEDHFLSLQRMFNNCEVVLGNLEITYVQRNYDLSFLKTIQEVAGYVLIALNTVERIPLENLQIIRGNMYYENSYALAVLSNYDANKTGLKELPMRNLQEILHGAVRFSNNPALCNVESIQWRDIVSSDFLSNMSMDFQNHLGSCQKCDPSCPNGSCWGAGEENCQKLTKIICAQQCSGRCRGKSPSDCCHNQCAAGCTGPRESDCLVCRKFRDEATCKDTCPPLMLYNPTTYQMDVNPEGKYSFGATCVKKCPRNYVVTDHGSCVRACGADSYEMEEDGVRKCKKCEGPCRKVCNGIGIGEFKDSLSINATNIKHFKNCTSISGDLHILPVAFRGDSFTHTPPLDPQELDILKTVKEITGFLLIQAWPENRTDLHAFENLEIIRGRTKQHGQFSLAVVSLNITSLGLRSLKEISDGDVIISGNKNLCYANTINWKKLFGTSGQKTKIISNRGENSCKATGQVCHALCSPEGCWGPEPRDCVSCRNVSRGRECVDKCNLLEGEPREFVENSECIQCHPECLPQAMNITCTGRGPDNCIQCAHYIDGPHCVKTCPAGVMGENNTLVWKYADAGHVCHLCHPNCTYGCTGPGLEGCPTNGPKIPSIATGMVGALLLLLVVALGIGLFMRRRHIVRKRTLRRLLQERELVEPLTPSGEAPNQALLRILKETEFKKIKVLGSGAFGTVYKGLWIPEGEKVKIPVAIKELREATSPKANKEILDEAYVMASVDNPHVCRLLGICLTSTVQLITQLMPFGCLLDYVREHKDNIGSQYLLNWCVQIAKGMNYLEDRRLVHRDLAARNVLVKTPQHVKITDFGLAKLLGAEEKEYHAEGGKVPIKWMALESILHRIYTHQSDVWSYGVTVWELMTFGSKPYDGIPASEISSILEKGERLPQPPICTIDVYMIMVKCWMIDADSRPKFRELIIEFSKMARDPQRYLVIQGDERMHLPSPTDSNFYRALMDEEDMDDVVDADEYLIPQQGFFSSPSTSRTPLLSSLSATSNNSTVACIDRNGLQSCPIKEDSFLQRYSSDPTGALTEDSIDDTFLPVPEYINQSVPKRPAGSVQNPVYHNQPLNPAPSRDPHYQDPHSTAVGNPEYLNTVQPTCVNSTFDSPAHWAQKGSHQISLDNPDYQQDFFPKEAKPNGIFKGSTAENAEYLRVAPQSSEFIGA

Compound: O=C1c2ccccc2-c2n[nH]c3cccc1c23 [CC-401]
Published (JNK2): 110 (Z. Han et al., J. Clin. Invest. 108, 73 (2001)) nM

Compound: CS(=O)(=O)CCNCc1ccc(-c2ccc3c(Nc4ccc(OCc5cccc(F)c5)c(Cl)c4)ncnc3c2)o1 [GW-2016]
Published (EGFR): 11 (D. W. Rusnak et al., Mol. Cancer Ther. 1, 85 (2001)) nM
Published (ERBB2): 9.2 (D. W. Rusnak et al., Mol. Cancer Ther. 1, 85 (2001)) nM

binding (association) kinetics (p38α [2]; p38, known and also observed in the competition assays): fast
Compound: Oc1ccc(-c2nc(-c3ccncc3)c(-c3ccc(F)cc3)[nH]2)cc1 [SB202190]
Published (p38α [1]): 37 (B. Frantz et at., Biochemistry 37, 13846 (1998)). nM

Compound: CCc1nc(-c2ccc(OC)cc2)[nH]c1-c1ccncc1 [SB202474]
decrease of the amount of phage-displayed p38 bound to the solid support (p38α [2]): neither SB202474 nor purvalanol A had a significant effect

Compound: CC(C)[C@H](CO)Nc1nc(Nc2cccc(Cl)c2)c2ncn(C(C)C)c2n1 [purvalanol A]
decrease of the amount of phage-displayed p38 bound to the solid support (p38α [2]; competition with immobilized SB202190, FIG. 1B): neither SB202474 nor purvalanol A had a significant effect

Source: US9267165B2, “Assays and kits for detecting protein binding” (DiscoveRx Corporation, priority 2002, dated 2016)
